# Reference: patent US20050112573A1, “Method of detecting toxic substance” (priority 2001, published 2005)
# Test system: yeast genes (level of expressed mRNA)
# Experiment: DNA chip analysis of expressed mRNA of yeast genes after 2 h culture with a toxic chemical substance
# Type: cell-based, Saccharomyces cerevisiae S288C
# Protocol: Yeast (Saccharomyces cerevtisiae S288C (α SUC2mal mel gap2 CUP1)) were cultured at 25° C. on YPD medium (yeast extract 1%, polypepton 2%, glucose 2%). One of toxic chemical substances was added to the cell at logarithmic growth phase, and the cell was further cultured for two hours. Cell was cultured without any chemical substance in the same condition, and was used as control. Concentrations of the chemical substances were defined to inhibit the growth of the yeast but not lead to death.
# After the completion of cultivation, the culture was centrifuged to collect the cells. To the cells, sodium acetate buffer (50 mM sodium acetate, 10 mM EDTA, 1% SDS) was added, and the mixture was shaken at 65° C. for five minutes, followed by returning to room temperature, and obtaining the supernatant, which procedure was repeated two times. To the supernatant, ½ amount of a solution of phenol/chloroform was added, and the mixture was centrifuged to give a supernatant, which was added with an equal amount of chloroform, and the mixture was centrifuged to give a supernatant. To the supernatant, an equal amount of isopropanol containing 0.3 M sodium acetate was added, and the mixture was allowed to stand at room temperature for 30 minutes, after which the mixture was centrifuged to give a sediment of the whole RNAs. Seventy % ethanol was added to the sediment, and the mixture was again centrifuged to give a sediment, which was then dried and dissolved in water. mRNA was isolated from the whole RNAs as followings. In view of the fact that a poly A chain is attached to the 3′ terminus of mRNA, a polynucleotide having a poly T structure which was immobilized on the surface of latex beads was used to trap the mRNA, and then the mRNA was washed and eluted with spine column (Oligotex-dT30<Super>mRNA Purification Kit, Takara). Reverse transcription of the mRNA was conducted with a reverse transcriptase (Super Script II Reverse Transcriptase; catalogue No. 18064-014, GibcoBRL) using fluorescence-labeled nucleotides to give cDNAs that were introduced with Cy3-dUTP or Cy5-dUTP during the reverse transcription.
# The labeled cDNAs were dissolved in TE buffer (10 mM Tris-HCl/1 mM EDTA, pH8.0), and the solution was dropped on the DNA chip containing the whole genes of yeast (DNA Chip Research Inc. Japan) so that the cDNAs were hybridized on the DNA chip at 65° C. for over 12 hours. The fluoresces intensity of the DNA chip was read with a scanner, and the ratio relative to the fluorescence intensity resulting from the absence of chemical substance was estimated as the following, which is shown in Tables 1 to 9: [formula]
# In the Tables, “Intensity” indicated in the rightmost column is a value of the level of expressed mRNA of each gene in control cells as divided by the average level of the expressions of the whole genes.
compound,measurement,setting,value
"S=C([S-])NCCNC(=S)[S-].[Zn+2] [(11), zinc N,N′-ethylenebis(dithiocarbamate)]",level of expressed mRNA in the presence of chemical substance/in its absence,gene YGR282C,1.5
same,The level of expressed mRNA in the presence of chemical substance/absence: YGR293C,gene YGR293C,0.6
same,The level of expressed mRNA in the presence of chemical substance/absence: YHL006C,gene YHL006C,0.7
same,The level of expressed mRNA in the presence of chemical substance/absence: YHL021C,gene YHL021C,1.4
same,The level of expressed mRNA in the presence of chemical substance/absence: YHL037C,gene YHL037C,1.0
same,level of expressed mRNA in the presence of chemical substance/in its absence,gene YHR037W,1.7
same,The level of expressed mRNA in the presence of chemical substance/absence: YHR083W,gene YHR083W,1.3
same,level of expressed mRNA in the presence of chemical substance/in its absence,gene YHR092C,1.5
same,The level of expressed mRNA in the presence of chemical substance/absence: YHR095W,gene YHR095W,1.3
same,The level of expressed mRNA in the presence of chemical substance/absence: YHR105W,gene YHR105W,0.7
same,The level of expressed mRNA in the presence of chemical substance/absence: YHR134W,gene YHR134W,0.7
same,level of expressed mRNA in the presence of chemical substance/in its absence,gene YHR137W,0.6
same,The level of expressed mRNA in the presence of chemical substance/absence: YHR180W,gene YHR180W,1.4
same,The level of expressed mRNA in the presence of chemical substance/absence: YHR181W,gene YHR181W,1.3
same,level of expressed mRNA in the presence of chemical substance/in its absence,gene YHR190W,1.3
same,level of expressed mRNA in the presence of chemical substance/in its absence,gene YIL033C,1.8
same,The level of expressed mRNA in the presence of chemical substance/absence: YIL108W,gene YIL108W,1.2
same,The level of expressed mRNA in the presence of chemical substance/absence: YIL127C,gene YIL127C,0.9
same,level of expressed mRNA in the presence of chemical substance/in its absence,gene YIL154C,1.2
same,The level of expressed mRNA in the presence of chemical substance/absence: YIL165C,gene YIL165C,1.1
same,level of expressed mRNA in the presence of chemical substance/in its absence,gene YIL167W,1.9
same,level of expressed mRNA in the presence of chemical substance/in its absence,gene YIR035C,1.3
same,The level of expressed mRNA in the presence of chemical substance/absence: YJL017W,gene YJL017W,1.4
same,The level of expressed mRNA in the presence of chemical substance/absence: YJL032W,gene YJL032W,1.8
same,The level of expressed mRNA in the presence of chemical substance/absence: YJL037W,gene YJL037W,1.6
same,The level of expressed mRNA in the presence of chemical substance/absence: YJL049W,gene YJL049W,1.5
same,level of expressed mRNA in the presence of chemical substance/in its absence,gene YJL088W,0.9
same,The level of expressed mRNA in the presence of chemical substance/absence: YJL097W,gene YJL097W,1.5
same,level of expressed mRNA in the presence of chemical substance/in its absence,gene YJL132W,1.4
same,level of expressed mRNA in the presence of chemical substance/in its absence,gene YJL196C,2.3
same,The level of expressed mRNA in the presence of chemical substance/absence: YJR030C,gene YJR030C,0.8
same,The level of expressed mRNA in the presence of chemical substance/absence: YJR044C,gene YJR044C,1.9
same,level of expressed mRNA in the presence of chemical substance/in its absence,gene YJR142W,0.9
same,level of expressed mRNA in the presence of chemical substance/in its absence,gene YJR148W,0.6
same,level of expressed mRNA in the presence of chemical substance/in its absence,gene YJR159W,2.2
same,The level of expressed mRNA in the presence of chemical substance/absence: YKL051W,gene YKL051W,1.8
same,The level of expressed mRNA in the presence of chemical substance/absence: YKL059C,gene YKL059C,0.9
same,level of expressed mRNA in the presence of chemical substance/in its absence,gene YKL067W,1.8
same,The level of expressed mRNA in the presence of chemical substance/absence: YKL090W,gene YKL090W,2.3
same,The level of expressed mRNA in the presence of chemical substance/absence: YKL094W,gene YKL094W,1.3
same,The level of expressed mRNA in the presence of chemical substance/absence: YKL097C,gene YKL097C,0.6
same,The level of expressed mRNA in the presence of chemical substance/absence: YKL100C,gene YKL100C,1.6
same,level of expressed mRNA in the presence of chemical substance/in its absence,gene YKR039W,1.9
same,The level of expressed mRNA in the presence of chemical substance/absence: YKR040C,gene YKR040C,0.8
same,The level of expressed mRNA in the presence of chemical substance/absence: YLR097C,gene YLR097C,1.7
same,level of expressed mRNA in the presence of chemical substance/in its absence,gene YLR142W,3.8
same,level of expressed mRNA in the presence of chemical substance/in its absence,gene YLR180W,1.7
same,The level of expressed mRNA in the presence of chemical substance/absence: YLR226W,gene YLR226W,0.8
same,level of expressed mRNA in the presence of chemical substance/in its absence,gene YLR273C,1.4
same,level of expressed mRNA in the presence of chemical substance/in its absence,gene YLR300W,1.0
same,level of expressed mRNA in the presence of chemical substance/in its absence,gene YLR307W,0.8
same,The level of expressed mRNA in the presence of chemical substance/absence: YLR338W,gene YLR338W,0.9
same,The level of expressed mRNA in the presence of chemical substance/absence: YLR339C,gene YLR339C,1.6
same,The level of expressed mRNA in the presence of chemical substance/absence: YLR392C,gene YLR392C,1.4
same,The level of expressed mRNA in the presence of chemical substance/absence: YLR415C,gene YLR415C,0.8
same,The level of expressed mRNA in the presence of chemical substance/absence: YLR427W,gene YLR427W,0.8
same,The level of expressed mRNA in the presence of chemical substance/absence: YML013W,gene YML013W,1.1
